According to patent US20120157401A1, “METHODS FOR TREATING NEUROFIBROMATOSIS” (PTC Therapeutics, Inc., priority 2009, published 2012):
Like-named read-outs stand apart in the source and are kept apart here.

Key:
[1] = test system: soluble VEGF121 and VEGF165 isoforms; experiment: ELISA of soluble VEGF production in nontransformed keratinocytes during hypoxia or normoxia; type: cell-based, human; conditions: 72 hours
Procedure: Experimental Design. Nontransformed normal human keratinocyte cell cultures were established under normoxic conditions (21% oxygen). […] At the completion of treatment, cells were assessed for viability with an ATP assay and conditioned media were evaluated for VEGF protein levels by ELISA (as described in Section 9.1.1.1).

HT1080 cells = experiment: Anchorage-independent colony formation in HT1080 cells; type: cell-based, human; conditions: 10 and 50 nM, day 18; P=0.29 and 0.07
Procedure: Experimental Design. HT1080 cells growing in monolayer were trypsinized, counted and suspended in a 0.35% agar noble/1× complete DMEM solution at 37° C. at a concentration of 2,500 cells/mL. One ml of this solution was layered over a semisolid base consisting of 0.5 mL of 0.75% agar noble/1× complete DMEM in a six well tissue culture plate. […] Tissue culture plates were then returned to the incubator and colonies were allowed to form. […] On day 18 the vehicle-treated wells had colonies of sufficient size to count (>50 cells/colony). At this time, for increased visualization, 1.5 mL of a 2× working volume of (3-(4,5-Dimethylthiazol-2-yl)-2,5-diphenyltetrazolium bromide, a tetrazole) (MTT, Invitrogen, Cat #C35007) was added and the plates were returned to the incubator for 2 hours until colonies were stained by conversion of the MTT to purple formazan crystals. Colonies were then visually counted under a dissecting microscope.

[2] = Oral pharmacokinetics / toxicokinetics in rats; type: in vivo, Sprague Dawley rats
Procedure: The pharmacokinetic evaluations in mice were adjuncts to the primary pharmacodynamic xenograft studies. The evaluations in rats included toxicokinetic assessments in single-dose, 7-day, and 28-day toxicology studies as well as a mass-balance study after a single oral dose of ^14C-Compound #10. The evaluations in dogs included toxicokinetic assessments in 7-day and 28-day toxicology studies. In the studies performed, rodents were dosed once daily with Compound #10 formulated in vehicle and administered via oral gavage.

[3] = 7-day oral toxicity study in rats; type: in vivo
Procedure: A battery of genotoxicity studies was also performed. […] The L23 vehicle was used.
Maximal exposures occurred at a dose of 120 mg/kg/day.

[4] = Micronucleus study in rats by the oral route; type: in vivo
Procedure: Genotoxicity was assessed in a battery of in vitro and in vivo studies that included a bacterial reverse mutation study, a chromosome aberration study in Chinese hamster ovary (CHO) cells, and a micronucleus study in rats by the oral route. The in vitro studies were performed in the presence and absence of an exogenous metabolic activation system.

[5] = Phase 1 multiple-dose study in healthy volunteers: pharmacokinetics (Table 28); type: in vivo, human; conditions: for concentration at 24 h / Tmax: human, plasma, oral; for concentration at 24 h: read-out: C24 h
Procedure: Methods. The trial was a Phase 1, randomized, escalating multiple dose, single center study conducted in 2 stages.
Capsules contained 2 mg or 20 mg of active substance.
Capsules contained 20 mg or 25 mg of active substance.
Noncompartmental methods were used to compute Tmax, Cmax, and AUC. Dose proportionality and sex effect were evaluated using ANOVA on log transformed PK parameters using dose, sex, and dose by sex as fixed factors.

T47D xenografts = experiment: T47D estrogen-sensitive breast cancer xenograft: tumor growth
Procedure: Experimental Design. Estrogen pellets (0.72 mg/pellet) were implanted 30 days prior to cell implantation and again 60 days later. T47D estrogen-sensitive breast cancer cells (5×10^6 cells/mouse mixed 1:1 with […] ™) were implanted subcutaneously in female athymic nude mice. […] Tamoxifen was included as a positive control.
Tumor size was measured by calipers at periodic intervals. After 74 days of treatment, the mice were sacrificed.

[6] = ECG and blood pressure assessments in 7-day and 28-day GLP toxicity studies
[7] = Stage 1, 0.3 mg/kg BID, Day 1, mean
[8] = Stage 1, 0.3 mg/kg BID, Day 7, mean
[9] = Stage 1, 0.6 mg/kg BID, Day 1, mean
[10] = Stage 1, 0.6 mg/kg BID, Day 7, mean
[11] = healthy volunteers, all dose levels

COc1ccc(C2c3[nH]c4ccc(Cl)cc4c3CCN2C(=O)Oc2ccc(Cl)cc2)cc1 (racemic) [Compound #10]
Maximal decrease in VEGF concentration in conditioned media ([1]; hypoxic (1% oxygen)): 57%
Mean VEGF concentration in conditioned media at maximal decrease ([1]; hypoxic (1% oxygen)): 606 pg/mL
Decrease in VEGF concentration in conditioned media ([1]; normoxic): 21%
Mean VEGF concentration in conditioned media in the presence of compound ([1]; normoxic): 192 pg/mL
Number of anchorage-independent colonies formed (HT1080 cells): modest trend toward a reduced number of colonies
Oral bioavailability [2]: orally bioavailable
Dose of maximal exposures ([3]; Sprague Dawley, rat, in vivo, po, 7 days): 120 mg/kg/day
NOAEL for 7-days ([3]; female rats): 120 mg/kg/day
NOAEL for 7-days ([3]; male rats): 40 mg/kg/day
Mean prothrombin time (PT) and activated partial thromboplastin time (aPTT) ([3]; rat, in vivo, 120 mg/kg/day): increases
Genotoxic effects, micronucleus in rats [4]: no evidence of genotoxic effects
AUC0-24 [5, 7]: 4310 ng·h/mL
Cmax (after PM dose) [5, 7]: 480 ng/mL
Dose-normalized AUC0-24 [5, 7]: 7.2 µg·h/mL/mg/kg
Dose-normalized Cmax [5, 7]: 0.79 µg/mL/mg/kg
Tmax (after PM dose) [5, 7]: 3.16 h
AUC0-24 [5, 8]: 8440 ng·h/mL
Cmax (after PM dose) [5, 8]: 590 ng/mL
Dose-normalized AUC0-24 [5, 8]: 14.1 µg·h/mL/mg/kg
Dose-normalized Cmax [5, 8]: 0.99 µg/mL/mg/kg
AUC0-24 [5, 9]: 10100 ng·h/mL
Cmax (after PM dose) [5, 9]: 970 ng/mL
Dose-normalized AUC0-24 [5, 9]: 8.4 µg·h/mL/mg/kg
Dose-normalized Cmax [5, 9]: 0.81 µg/mL/mg/kg
Tmax (after PM dose) [5, 9]: 3.17 h
AUC0-24 [5, 10]: 18600 ng·h/mL
Cmax (after PM dose) [5, 10]: 1160 ng/mL
Dose-normalized AUC0-24 [5, 10]: 15.5 µg·h/mL/mg/kg
Dose-normalized Cmax [5, 10]: 0.97 µg/mL/mg/kg
Dose-normalized AUC0-24 ([5]; Stage 1, […] BID, Day 1, mean): 7.5 µg·h/mL/mg/kg
Dose-normalized Cmax ([5]; Stage 1, […] BID, Day 1, mean): 0.82 µg/mL/mg/kg
Cmax (after PM dose) ([5]; Stage 1, […] BID, Day 7, mean): 2470 ng/mL
Dose-normalized AUC0-24 ([5]; Stage 1, […] BID, Day 7, mean): 13.7 µg·h/mL/mg/kg
Dose-normalized Cmax ([5]; Stage 1, […] BID, Day 7, mean): 1.03 µg/mL/mg/kg
Dose-normalized AUC0-24 ([5]; Stage 2, […] TID, Day 1, mean): 7.7 µg·h/mL/mg/kg
Dose-normalized Cmax ([5]; Stage 2, […] TID, Day 1, mean): 0.51 µg/mL/mg/kg
Tmax (after PM dose) ([5]; Stage 2, […] TID, Day 1, mean): 2.50 h
Cmax (after PM dose) ([5]; Stage 2, […] TID, Day 7, mean): 4650 ng/mL
Dose-normalized AUC0-24 ([5]; Stage 2, […] TID, Day 7, mean): 16.4 µg·h/mL/mg/kg
Dose-normalized Cmax ([5]; Stage 2, […] TID, Day 7, mean): 0.98 µg/mL/mg/kg
concentration at 24 h ([5]; both sexes, 0.3 mg/kg, Stage 1, 0.3 mg/kg BID, Day 1, mean): 94 ng/mL
concentration at 24 h ([5]; both sexes, 0.3 mg/kg, Stage 1, 0.3 mg/kg BID, Day 7, mean): 210 ng/mL
concentration at 24 h ([5]; both sexes, 0.6 mg/kg, Stage 1, 0.6 mg/kg BID, Day 1, mean): 260 ng/mL
concentration at 24 h ([5]; both sexes, 0.6 mg/kg, Stage 1, 0.6 mg/kg BID, Day 7, mean): 540 ng/mL
Tmax ([5]; both sexes, healthy volunteers, Stage 1 and Stage 2, read-out: Mean Tmax): ~3 h
Tmax ([5]; both, Stage 1, 1.2 mg/kg BID, Day 1, mean, read-out: Tmax (after PM dose)): 3 h
Oral bioavailability ([5]; healthy volunteers): orally bioavailable
Differences in Cmax or AUC0-24 between males and females ([5]; healthy volunteers, ANOVA): no significant differences
Accumulation (Day 1 to Day 7) when dosed continuously [5, 11]: ~2 fold
Target trough plasma concentration (~0.1 to […]) [5, 11]: achieved and maintained
Lag time until appearance in plasma ([5]; healthy volunteers, oral capsules): ~30 min
Mean % Inhibition of Tumor Size vs Vehicle at Day 74 (T47D xenografts; 10 mg/kg oral QD): 40%
Toxicity on observing the animals (T47D xenografts; T47D xenograft mice, 10 mg/kg QD, 74 days): no evidence of toxicity
QTc values vs controls ([6]; males, 60 mg/kg/day, 28-day study): comparable to controls
Increase in mean uncorrected QT value vs controls ([6]; males, 60 mg/kg/day, end of 28-day dosing): 7%
Toxicological effects on ECG or blood pressure ([6]; through 120 mg/kg/day for 7-days and through 60 mg/kg/day for 28-days): did not have any toxicological effects
